For 22 compounds, EC50 and IC50 results are on record in patent US20240400560A1, “BICYCLIC HETEROCYCLIC DERIVATIVE HAVING VIRAL GROWTH INHIBITORY ACTIVITY AND PHARMACEUTICAL COMPOSITION CONTAINING SAME” (Shionogi & Co., Ltd., priority 2021, published 2024).

One test concerns SARS-CoV-2. Description: Inhibitory activity of cytopathic effect (CPE) in HEK293T/ACE2-TMPRSS2 cells. As to conditions: Severe acute respiratory syndrome coronavirus 2, HEK-293T, 72 h, HEK293T/ACE2-TMPRSS2 cells. The test is classed as cell-based.
In another test the target is SARS-CoV-2 3CL protease (Severe acute respiratory syndrome coronavirus 2, UniProt P0DTD1). Description: Inhibitory activity test against SARS-CoV-2 3CL proteases. Type of test: biochemical.
[1] abbreviates: cultured 3 days, CellTiter-Glo 2.0 luminescence, read-out: EC50 (50% SARS-CoV-2 infected cell death inhibitory concentration).
The mark [2] stands for this setting: read-out: IC50 (50% SARS-CoV-2 3CL protease inhibitory concentration).
[3] abbreviates: IC50 (50% SARS-CoV-2 3CL protease inhibitory concentration).

Like-named read-outs stand apart in the source and are kept apart here. Some results are limits rather than exact numbers.

Regarding `COc1nc(N2CCC(C)(O)C2)cc2c1c(=O)n(-c1cnc3cc(F)ccn13)c(=O)n2-c1ccc(F)c(Cl)c1` (centres unmarked) [Compound I-1043], the EC50 with SARS-CoV-2 (setting [1]) is less than 100 nM. Further, at SARS-CoV-2 3CL protease (setting [2]), the IC50 was less than 100 nM.

For `COc1nc(N2CC[C@@H](O)C2)cc2c1c(=O)n(-c1cncc(F)c1)c(=O)n2-c1ccc(F)c(F)c1` [Compound I-1044], in the test on SARS-CoV-2 (setting [1]), the EC50 was less than 100 nM. At SARS-CoV-2 3CL protease (setting [2]), the IC50 was less than 100 nM.

Turning to `COc1nc(N2CC[C@@H](C(=O)N(C)C)C2)cc2c1c(=O)n(-c1cnc3cc(F)ccn13)c(=O)n2-c1ccc(F)c(Cl)c1` [Compound I-1045], the EC50 with SARS-CoV-2 (setting [1]) is less than 100 nM. Moreover, the IC50 on SARS-CoV-2 3CL protease (setting [2]) was less than 100 nM.

For `COc1nc(NC2CCCC2)cc2c1c(=O)n(-c1cnc3cc(F)ccn13)c(=O)n2-c1ccc(F)c(Cl)c1` [Compound I-1046], in the test on SARS-CoV-2 (setting [1]), the EC50 is less than 100 nM. The compound also displayed an IC50 against SARS-CoV-2 3CL protease (setting [3]) of less than 100 nM.

As to `C=Cc1cc2c(c(OC)n1)c(=O)n(-c1cnc3cc(F)ccn13)c(=O)n2-c1ccc(F)c(F)c1` [Compound I-1047], the EC50 in the test with SARS-CoV-2 (setting [1]) was in the range of 100 to 1000 nM. In addition, the IC50 at SARS-CoV-2 3CL protease (setting [2]) was less than 100 nM.

Regarding `O=c1c2c(=O)n(-c3cnc4cc(F)ccn34)c(=O)n(-c3ccc(F)c(Cl)c3)c2cc2n1CC[C@@H]1CCCCN21` [Compound I-1048], the EC50 in the test on SARS-CoV-2 (50% SARS-CoV-2 infected cell death inhibitory concentration, CellTiter-Glo 2.0 after 3 days culture, read-out: EC50) was 436 nM. On SARS-CoV-2 3CL protease (setting [2]), the IC50 was found to be 23 nM.

For the compound `COCCNc1cc2c(c(OC)n1)c(=O)n(-c1cnc3cc(F)ccn13)c(=O)n2-c1ccc(F)c(Cl)c1` [Compound I-1049], the EC50 in the test with SARS-CoV-2 (setting [1]) was less than 100 nM. The IC50 against SARS-CoV-2 3CL protease (setting [3]) was less than 100 nM.

Regarding `COC[C@H]1CCCN1c1cc2c(c(OC)n1)c(=O)n(-c1cnc3cc(F)ccn13)c(=O)n2-c1ccc(F)c(Cl)c1` [Compound I-1050], the EC50 with SARS-CoV-2 (setting [1]) was less than 100 nM. The IC50 at SARS-CoV-2 3CL protease (setting [2]) was less than 100 nM.

`O=c1c2c(=O)n(-c3cnc4cc(F)ccn34)c(=O)n(-c3ccc(F)c(Cl)c3)c2cc2n1CC[C@H]1CCCN21` [Compound I-1051]: in the test with SARS-CoV-2 (setting [1]), the EC50 is 100 to 1000 nM. In addition, the IC50 at SARS-CoV-2 3CL protease (setting [2]) is less than 100 nM.

As to `COc1nc(N2C[C@@H](F)[C@@H](OC)C2)cc2c1c(=O)n(-c1cnc3cc(F)ccn13)c(=O)n2-c1ccc(F)c(Cl)c1` [Compound I-1052], in the test with SARS-CoV-2 (setting [1]), the EC50 was less than 100 nM. For the same compound, the IC50 at SARS-CoV-2 3CL protease (setting [2]) was less than 100 nM.

Take `COc1nc(NC2CCC2)cc2c1c(=O)n(-c1cnc3cc(F)ccn13)c(=O)n2-c1ccc(F)c(Cl)c1` [Compound I-1053]: the EC50 with SARS-CoV-2 (setting [1]) is less than 100 nM. In addition, the IC50 on SARS-CoV-2 3CL protease (setting [2]) was less than 100 nM.

With `COc1nc(N2CCOC[C@H]2C)cc2c1c(=O)n(-c1cnc3cc(F)ccn13)c(=O)n2-c1ccc(F)c(Cl)c1` [Compound I-1054], in the test on SARS-CoV-2 (setting [1]), the EC50 was less than 100 nM. For the same compound, the IC50 on SARS-CoV-2 3CL protease (setting [2]) was less than 100 nM.

Consider `COc1nc(N2CCC(N(C)C)C2)cc2c1c(=O)n(-c1cnc3cc(F)ccn13)c(=O)n2-c1ccc(F)c(Cl)c1` (centres unmarked) [Compound I-1055], for which the EC50 in the test on SARS-CoV-2 (setting [1]) was less than 100 nM. Also, on SARS-CoV-2 3CL protease (setting [2]), the IC50 is less than 100 nM.

Turning to `COc1nc(N2CCC(O)(C(F)F)C2)cc2c1c(=O)n(-c1cnc3cc(F)ccn13)c(=O)n2-c1ccc(F)c(Cl)c1` (centres unmarked) [Compound I-1056], in the test with SARS-CoV-2 (setting [1]), the EC50 was less than 100 nM. The IC50 at SARS-CoV-2 3CL protease (setting [2]) was less than 100 nM.

Regarding `COc1nc(N2CCC(F)(F)C2)cc2c1c(=O)n(-c1cncc(C#N)c1)c(=O)n2-c1ccc(F)c(F)c1` [Compound I-1057], the EC50 in the test with SARS-CoV-2 (setting [1]) was less than 100 nM. For the same compound, the IC50 on SARS-CoV-2 3CL protease (setting [2]) was less than 100 nM.

Take `CCN(CC)c1cc2c(c(OC)n1)c(=O)n(-c1cnc3cc(F)ccn13)c(=O)n2-c1ccc(F)c(Cl)c1` [Compound I-1058]: in the test on SARS-CoV-2 (setting [1]), the EC50 was less than 100 nM. Besides, the IC50 on SARS-CoV-2 3CL protease (setting [2]) was less than 100 nM.

For `COc1nc(N2CC[C@@H](C(C)(C)O)C2)cc2c1c(=O)n(-c1cncc(Cl)c1)c(=O)n2-c1ccc(F)c(Cl)c1` [Compound I-1059], in the test on SARS-CoV-2 (setting [1]), the EC50 is less than 100 nM. For the same compound, the IC50 at SARS-CoV-2 3CL protease (setting [2]) is less than 100 nM.

`COc1nc(N2CCC3(CCOC3)C2)cc2c1c(=O)n(-c1cnc3cc(F)ccn13)c(=O)n2-c1ccc(F)c(Cl)c1` (centres unmarked) [Compound I-1060]: the EC50 in the test on SARS-CoV-2 (setting [1]) is less than 100 nM. Besides, at SARS-CoV-2 3CL protease (setting [2]), the IC50 was less than 100 nM.

On to `COC[C@@H](C)Nc1cc2c(c(OC)n1)c(=O)n(-c1cnc3cc(F)ccn13)c(=O)n2-c1ccc(F)c(Cl)c1` [Compound I-1061], for which, in the test on SARS-CoV-2 (setting [1]), the EC50 was less than 100 nM. Moreover, at SARS-CoV-2 3CL protease (setting [2]), the IC50 was less than 100 nM.

Turning to `COCCCc1cc2c(c(OC)n1)c(=O)n(-c1cnc3cc(F)ccn13)c(=O)n2-c1ccc(F)c(Cl)c1` [Compound I-1062], the EC50 in the test with SARS-CoV-2 (setting [1]) is less than 100 nM. The IC50 at SARS-CoV-2 3CL protease (setting [2]) is less than 100 nM.

Turning to `O=c1c2c(=O)n(-c3cnc4cc(F)ccn34)c(=O)n(-c3ccc(F)c(Cl)c3)c2cc2n1CC[C@H]1CCCCN21` [Compound I-1063], the EC50 in the test with SARS-CoV-2 (setting [1]) fell in the range of 100 to 1000 nM. Further, on SARS-CoV-2 3CL protease (setting [2]), the IC50 is less than 100 nM.

For the compound `COc1nc(N2CCC(O)(C(F)(F)F)C2)cc2c1c(=O)n(-c1cncc(Cl)c1)c(=O)n2-c1ccc(F)c(Cl)c1` (centres unmarked) [Compound I-1064], in the test on SARS-CoV-2 (setting [1]), the EC50 is less than 100 nM. In addition, the IC50 at SARS-CoV-2 3CL protease (setting [2]) is less than 100 nM.
